Measurements reported in patent US6251861A, “Treatment of cerebral infarction using cyclic hexapeptides” (Takeda Chemical Industries, Ltd., priority 1996, dated 2001).

Tests used:
[1] = tested on: endothelin A receptor / endothelin B receptor / endothelin converting enzyme; details: ETA: endothelin A receptor; ETB: endothelin B receptor; ECE: endothelin converting enzyme (inhibition); from the literature cited in the tables; cited from earlier work
[2] = tested on: total brain infarct models (gerbils, bilateral common carotid arteries obstructed for 15 minutes); experiment: Total brain infarct model, survival (Test Example 2); type: in vivo, gerbil; details: 3 mg/kg intraperitoneally twice (60 min before obstruction, 90 min after reperfusion), n=11, vehicle group 0%, p<0.05
Description: Mature male gerbils were divided into 2 groups and total brain infarct models were constructed by obstructing the bilateral common carotid arteries for 15 minutes (Nagisa et al., Basic Pharmacology & Therapeutics,23, 103-108, 1995). Control saline (vehicle) (Group A) and compound 2 (3 mg/kg) (Group B) were administered intraperitoneally twice, namely 60 minutes before obstruction and 90 minutes after reperfusion and the survival rates at 8 hours following reperfusion were compared between the groups. Intergroup comparison was made by ANOVA test (one-way analysis of variance).

Row | Compound | Selectivity [1] | survival rate at 8 hours after reperfusion [2] [%]
1 | 27-O-3-[2-(3-carboxy-acryloylamino)-5-hydroxyphenyl]-acryloyloxy myricerone, sodium salt [97-139] | ETA | 
2 | CCCc1cc(C(=O)O)ccc1OC(C(=O)NS(=O)(=O)c1ccc(C(C)C)cc1)c1ccc2c(c1)OCO2 (racemic) [L-749329, (±)N-(4-isopropylbenzenesulphonyl)-α-(4-carboxy-2-n-propylphenoxy)-3,4-methylene dioxyphenyl acetamide] | ETA | 
3 | CCCc1cc(C(=O)OC)ccc1CC(C(=O)NS(=O)(=O)c1ccc(C(C)C)cc1)c1ccc2c(c1)OCO2 (racemic) [L-751281, (±)N-[2-(3,4-methylenedioxyphenyl)-3-(4-carbomethoxy-2-propylphenyl)-propanoly]-4-(isopropyl)benzene sulphonamide] | ETA | 
4 | CCCc1cc(C(=O)O)ccc1OC(C(=O)NS(=O)(=O)c1ccc(C(C)C)cc1)c1ccc2c(c1)OCO2 (single isomer, unassigned; (-)) [L-754142, (-)N-(4-isopropylbenzenesulphonyl)-α-(4-carboxy-2-n-propylphenoxy)-3,4-methylene dioxyphenyl acetamide] | ETA | 
5 | CC1(C)CC[C@]2(C(=O)O)CC[C@]3(COC(=O)/C=C/c4ccc(O)c(O)c4)C(=CC[C@@H]4[C@@]5(C)CCC(=O)C(C)(C)[C@@H]5CC[C@]43C)[C@@H]2C1 [50-235, 27-O-caffeoyl myricerone] | ETA | 
6 | COC(=O)c1cc(O)cc(OC)c1Oc1cc(C)cc(O)c1C(=O)O [Asterric acid] | ETA | 
7 | Cc1noc(NS(=O)(=O)c2cccc3c(N(C)C)cccc23)c1C [BMS-182874, 5-(dimethylamino)-N-(3,4-dimethyl-5-isoxazolyl)-1-naphthalene sulphonamide] | ETA | 
8 | O=P(O)(O)CN[C@@H](Cc1ccc(-c2ccccc2)cc1)c1nnn[nH]1 [CGS-26303, (S)-2-diphenyl-4-yl-1-(1H-tetrazol-5-yl)-ethylaminomethyl phosphonic acid] | ECE | 
9 | O=P(CN[C@@H](Cc1ccc(-c2ccccc2)cc1)c1nnn[nH]1)(Oc1ccccc1)Oc1ccccc1 [CGS-26393, diphenyl[(S)-2-diphenyl-4-yl-1-(1H-tetrazol-5-yl)-ethylamino-methyl] phosphonate] | ECE | 
10 | CC(C)C[C@H](NC(=O)N1CCCCCC1)C(=O)NC(Cc1cn(C)c2ccccc12)C(=O)N[C@H](Cc1ccccn1)C(=O)O (stereo partly drawn) [FR139317, (R)-2-{(S)-2-([1-{hexahydro-1H-azepinyl}carbonyl]-amino-methyl-pentamoyl)}-amino-3-(3[1-methyl-1H-indolyl])propionylamino-3-(2-pyridyl)propionic acid] | ETA | 
11 | Cc1cc(C)cc(C(=O)N(C)[C@H](Cc2ccc(-c3ccccc3)cc2)C(=O)N[C@@H](Cc2c[nH]c3ccccc23)C(=O)O)c1 [IRL2500, N-(3,5-dimethylbenzoyl)-N-methyl-(D)-[(4-phenyl)-phenyl]-alanyl-L-tryptophan] | ETB | 
12 | Cc1cc(C)cc(C(=O)N(C)[C@H](Cc2ccc(-c3ccsc3)cc2)C(=O)N[C@@H](Cc2c[nH]c3ccccc23)C(=O)O)c1 [IRL2659, N-(3,5-dimethylbenzoyl)-N-methyl-(D)-[4-(3-thienyl)-phenyl]-alanyl-L-tryptophan] | ETB | 
13 | Cc1cc(C)cc(C(=O)N(C)[C@H](Cc2ccc(-c3ccno3)cc2)C(=O)N[C@@H](Cc2c[nH]c3ccccc23)C(=O)O)c1 [IRL2796, N-(3,5-dimethylbenzoyl)-N-methyl-(D)-[4-(5-isoxazolyl)-phenyl]-alanyl-L-tryptophan] | ETB | 
14 | CC(C)C[C@H](NP(=O)(O)CCc1ccc2ccccc2c1)C(=O)N[C@@H](Cc1c[nH]c2ccccc12)C(=O)O [N-2-(2-naphthyl)ethyl-phosphonyl-L-Leu-L-Trp] | ECE | 
15 | CC(C)C[C@H](NC(=O)N1CCCCCC1)C(=O)N[C@H](Cc1cn(C)c2ccccc12)C(=O)N[C@H](Cc1ccc(O)cc1)C(=O)O [PD151242, (N-[(hexahydro-1-azepinyl)carbonyl])-L-Leu(1-Me)D-Trp-D-Tyr] | ETA | 
16 | COc1ccc(C(=O)C(Cc2ccccc2)=C(C(=O)O)c2ccc3c(c2)OCO3)cc1 [PD155080, 2-benzo(1,3)dioxol-5-yl-3-benzyl-4-(4-methoxyphenyl)-4-oxobut-2-enoate] | ETA | 
17 | CCCOc1cccc(CC(C(=O)c2ccc(OC)cc2)=C(C(=O)O)c2ccc3c(c2)OCO3)c1 [PD155719, 2-(1,3-benzodioxol-5-yl)-4-(4-methoxyphenyl)-4-oxo-3[(3-propoxyphenyl)methyl]-2-butenoic acid] | ETA | 

Row | Compound | Selectivity [1] | survival rate at 8 hours after reperfusion [2] [%]
18 | COc1ccc(C(=O)C(Cc2cc(OC)c(OC)c(OC)c2)=C(C(=O)O)c2ccc3c(c2)OCO3)cc1 [PD156707, 2-benzo(1,3)dioxol-5-yl-4-(4-methoxyphenyl)-4-oxo-3-(3,4,5-trimethoxybenzyl)-but-2-enoate] | ETA | 
19 | CCCCCOc1c(OC)cc(CC2=C(c3ccc4c(c3)OCO4)C(=O)OC2(O)c2ccc(OC)cc2)cc1OC (centres unmarked) [PD160672, 3-benzo(1,3)dioxol-5-yl-(3,5-dimethoxy-4-pentyloxybenzyl)-5-hydroxy-5-(4-methoxyphenyl)-5H-furan-2-one] | ETA/ETB | 
20 | COc1cc(C2=C(CC3CCCCC3)C(O)(c3ccc4c(c3)OCCO4)OC2=O)cc2c1OCO2 (centres unmarked) [PD160874, 4-cryclohexyl-methyl-5-[2,3-dihydro-benzo(1,4)dioxin-6-yl]-5-hydroxy-3-[7-methoxybenzo(1,3)-dioxol-5-yl]-5H-furan-2-one] | ETA/ETB | 
21 | CC(C)C[C@H](NP(=O)(O)O[C@@H]1O[C@@H](C)[C@H](O)[C@@H](O)[C@H]1O)C(=O)N[C@@H](Cc1c[nH]c2ccccc12)C(=O)O [Phosphoramidon, N-phosphonyl L-Leu-L-Trp] | ECE | 
22 | COc1cccc(Oc2c(NS(=O)(=O)c3ccc(C(C)(C)C)cc3)ncnc2OCCO)c1 [Ro46-2005, 4-tert-butyl-N-[6-(2-hydroxyethoxy)-5-(3-methoxyphenoxy)-4-pyrimidinyl]-benzenesulphonamide] | ETA/ETB | 
23 | COc1ccc(-c2nc(NS(=O)(=O)c3ccc(C(C)(C)C)cc3)c(Oc3ccccc3OC)c(OC[C@@H](O)CO)n2)cc1 [Ro46-8443, 4-tert-butyl-N-[(S)6-(2,3-dihydroxypropoxy)-5-(2-methoxyphenoxy)-2-(4-methoxyphenyl)-pyrimidin-4-yl]-benzene sulphonamide] | ETB | 
24 | CC(C)C[C@H](NP(=O)(O)CC(O)CO)C(=O)N[C@@H](Cc1c[nH]c2ccccc12)C(=O)[O-].CC(C)C[C@H](NP(=O)(O)CC(O)CO)C(=O)N[C@@H](Cc1c[nH]c2ccccc12)C(=O)[O-].[Na+].[Na+] (stereo partly drawn) [S-17162, N-(2,3 dihydroxy propyl phosphonyl)-(S)-Leu-(S)-Trp-OH, disodium salt] | ECE | 
25 | CCCOc1ccc2c(c1)[C@@H](c1ccc(OC)cc1OCCO)[C@H](C(=O)O)[C@H]2c1ccc2c(c1)OCO2 [SB-217242, (+)-(1S,2R,3S)-3-[2-(2-hydroxyeth-1-yloxy)-4-methoxyphenyl]-1-(3,4-methylenedioxyphenyl)-5-(prop-1-yloxy)indan-2-carboxylic acid] | ETA/ETB | 
26 | CC(=O)NC(CSC12CCC3(O)CC(C)=CC(=O)C3(O)C1(O)C(=O)c1cccc(O)c1C2=O)C(=O)O (centres unmarked) [WS009A, 2-acetamido-3-[[1,4,4a,5,6,6a,7,12,12a,12b-decahydro-4a,8,12a,12b-tetra-hydroxy-3-methyl-1,7,12-trioxobenz[a]anthracen-6a-yl]-thio]propionic acid] | ETA | 
27 | COc1ccccc1Oc1c(NS(=O)(=O)c2ccc(C(C)(C)C)cc2)nc(-c2ncccn2)nc1OCCO [compound 2, 4-Tert-butyl-N-[6-(2-hydroxyethoxy)-5-(2-methoxyphenoxy)-2,2'-bipyrimidin-4-yl]-benzene sulfonamide] | ETA/ETB | 36
28 | Ac-D-Bhg-Leu-Asp-Ile-Ile-Trp.2Na [PD145065] | ETA/ETB | 
29 | Ac-D-Dip-Leu-Asp-Ile-Ile-Trp.2Na [PD142893] | ETA/ETB | 
30 | Dmpc-.tau.-MeLeu-D-Trp(1-CO2 CH3)-D-Nle-OH [BQ-788] | ETB | 
31 | [Cys^11 -Cys^15 ]-ET-1(11-21) [IRL-1038] | ETB | 
32 | cyc(D-Trp-D-Asp-Pro-D-Val-Leu) [BQ-123] | ETA | 
33 | cyc(Gly-Asn-Trp-His-Gly-Thr-Ala-Pro-Asp)-Trp-Phe-Asn-Tyr-Tyr-Trp [RES-7011] | ETB | 
34 | cys(D-Sal-L-Pro-D-Val-L-Leu-D-Trp) [BQ-153] | ETA | 
